Holding throughout (assay type): functional
For one test, the system named is Staphylococcus aureus. Description: Antibacterial activity against Staphylococcus aureus by paper disk diffusion method. A general note: A growth-free zone around the sample is the usual read-out of agar diffusion tests.
The next test has as its system Escherichia coli. Description: Antibacterial activity against Escherichia coli by paper disk diffusion method.
A further test deals with Pseudomonas aeruginosa. Description: Antibacterial activity against Pseudomonas aeruginosa NJ94 by paper disk diffusion method.

Molecules are shown by their SMILES. The source made the active and inactive calls. The rule behind the calls is not given here.

On to `CC(=O)OC[C@@]12[C@@H](OC(C)=O)C[C@@H](C)[C@](C)([C@@H]3C[C@H]4C[C@H](O)O[C@H]4O3)[C@H]1CCC[C@]21CO1`, for which the “inhibition zone (IZ)” value with Staphylococcus aureus and in the test with Escherichia coli was 1.2 mm each time. In the test on Pseudomonas aeruginosa, the result was inactive.

As to `CO[C@H]1C[C@@H]2C[C@@H]([C@@]3(C)[C@H](C)C[C@H](OC(C)=O)[C@]4(COC(C)=O)[C@@H]3CCC[C@]43CO3)O[C@@H]2O1`, the result in the test with Staphylococcus aureus, with Escherichia coli and in the test on Pseudomonas aeruginosa was inactive.

Turning to `CC[C@@H](C)C(=O)O[C@H]1[C@H](O)C[C@@H]2[C@@](C)([C@@H]3C[C@H]4C[C@@H](OC)O[C@H]4O3)[C@H](C)C[C@H](OC(C)=O)[C@@]2(COC(C)=O)[C@@]12CO2` [LUPULIN A], the “inhibition zone (IZ)” value with Staphylococcus aureus is 1.5 mm; in the test on Escherichia coli, 3 mm; with Pseudomonas aeruginosa, 3 mm.

For `CC[C@@H](C)C(=O)O[C@H]1CC[C@@H]2[C@@](C)([C@@H]3C[C@H]4C[C@H](OC)O[C@H]4O3)[C@H](C)C[C@H](OC(C)=O)[C@@]2(COC(C)=O)[C@@]12CO2` [LUPULIN B], the “inhibition zone (IZ)” value in the test on Staphylococcus aureus and in the test on Escherichia coli was 1.2 mm throughout. The result in the test on Pseudomonas aeruginosa was inactive.

The values are drawn from ChEMBL document CHEMBL1158274, “Antibacterial neoclerodane diterpenoids from Ajuga lupulina” (1996).
